Reference: patent US5258286A, “Method of terminating isocitrate dehydrogenase reaction” (Oriental Yeast Co., Ltd., priority 1985, dated 1993)

System: iCDH (isocitrate dehydrogenase)
Settings: EDTA concentration of 5 mM; 0.4 mM MgCl2, 1.6 mM isocitric acid, 1 mM NADP+, 0.1M triethanolamine hydrochloride pH 8.5, 25° C.; FIG. 1
Protocol: A varied amount of EDTA was added to 3 ml of a 0.1M triethanolamine hydrochloride solution (pH 8.5) containing the above-listed ingredients to provide an EDTA concentration of 0 to 10 mM. Each of the resulting mixtures was kept at a temperature of 25° C., and admixed with 20 μl of iCDH of about 3 u/ml, followed by measurement of the iCDH activity based on an increase in absorption at 340 nm by spectrophotometry.

In the case of `O=C(O)CN(CCN(CC(=O)O)CC(=O)O)CC(=O)O` [EDTA], the iCDH activity is reported as “completely loses its activity”.
